Results reported in paper PMC3961306, “Comparison of the Cancer Gene Targeting and Biochemical Selectivities of All Targeted Kinase Inhibitors Approved for Clinical Use” (PLoS ONE, 2014).

Tests used:
Assay in all cases: Kinase profiling in a biochemical assay panel (mobility shift assays and ELISA), %-inhibition at 1 μM; selectivity entropy
[1] = molecular target: T1, panel of more than 300 wild-type and mutant kinases (313 kinase panel) (Homo sapiens, UniProt Q13976)
T1 sequence (Q13976 1-671): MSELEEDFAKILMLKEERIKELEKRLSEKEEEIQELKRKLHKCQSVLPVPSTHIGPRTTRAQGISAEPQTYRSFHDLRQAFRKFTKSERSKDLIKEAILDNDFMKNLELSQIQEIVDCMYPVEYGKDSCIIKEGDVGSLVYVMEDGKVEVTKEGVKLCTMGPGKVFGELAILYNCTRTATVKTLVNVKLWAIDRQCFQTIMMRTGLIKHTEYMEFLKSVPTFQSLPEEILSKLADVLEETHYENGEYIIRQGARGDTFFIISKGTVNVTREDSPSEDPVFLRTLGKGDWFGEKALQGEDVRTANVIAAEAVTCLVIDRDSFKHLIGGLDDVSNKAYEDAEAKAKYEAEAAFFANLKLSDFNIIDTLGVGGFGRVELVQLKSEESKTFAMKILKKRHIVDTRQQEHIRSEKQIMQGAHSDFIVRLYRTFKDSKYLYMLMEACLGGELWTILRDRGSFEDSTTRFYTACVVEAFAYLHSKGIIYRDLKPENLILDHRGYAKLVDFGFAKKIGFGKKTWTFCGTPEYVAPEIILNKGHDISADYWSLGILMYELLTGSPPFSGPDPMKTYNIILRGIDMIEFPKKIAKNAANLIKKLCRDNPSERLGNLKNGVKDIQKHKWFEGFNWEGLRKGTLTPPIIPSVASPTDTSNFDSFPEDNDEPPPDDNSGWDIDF

[2] = molecular target: T2, panel of more than 300 wild-type and mutant kinases (313 kinase panel) (Homo sapiens, UniProt Q12851)
T2 sequence (Q12851 1-820): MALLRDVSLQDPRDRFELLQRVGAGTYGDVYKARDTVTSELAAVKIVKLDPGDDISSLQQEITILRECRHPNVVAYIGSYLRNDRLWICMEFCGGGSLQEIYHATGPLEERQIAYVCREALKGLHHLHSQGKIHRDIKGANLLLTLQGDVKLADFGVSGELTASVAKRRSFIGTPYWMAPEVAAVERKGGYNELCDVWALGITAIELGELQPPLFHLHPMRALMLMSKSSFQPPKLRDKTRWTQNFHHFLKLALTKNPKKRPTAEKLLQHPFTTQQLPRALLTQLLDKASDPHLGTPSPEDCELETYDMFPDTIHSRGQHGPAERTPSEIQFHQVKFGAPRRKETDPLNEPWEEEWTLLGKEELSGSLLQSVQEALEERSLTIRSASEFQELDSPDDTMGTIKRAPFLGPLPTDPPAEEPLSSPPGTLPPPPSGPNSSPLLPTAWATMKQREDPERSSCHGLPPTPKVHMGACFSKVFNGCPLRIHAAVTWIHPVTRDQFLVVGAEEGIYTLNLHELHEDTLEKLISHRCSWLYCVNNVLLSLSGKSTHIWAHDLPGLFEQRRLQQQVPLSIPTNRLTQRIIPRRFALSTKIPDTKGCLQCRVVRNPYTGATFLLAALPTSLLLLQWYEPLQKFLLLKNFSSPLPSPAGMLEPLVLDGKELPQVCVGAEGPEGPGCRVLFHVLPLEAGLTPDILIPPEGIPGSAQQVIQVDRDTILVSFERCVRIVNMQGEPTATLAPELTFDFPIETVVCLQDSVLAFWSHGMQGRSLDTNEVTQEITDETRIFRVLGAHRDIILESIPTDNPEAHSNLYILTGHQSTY

[3] = molecular target: panel of more than 300 wild-type and mutant kinases (313 kinase panel) (Homo sapiens, UniProt Q7KZI7)
[4] = molecular target: panel of more than 300 wild-type and mutant kinases (313 kinase panel) (Homo sapiens, UniProt Q02763)
panel of more than 300 wild-type and mutant kinases (313 kinase panel) (Homo sapiens, UniProt Q02763), sequence (Q02763 23-1124, change not shown): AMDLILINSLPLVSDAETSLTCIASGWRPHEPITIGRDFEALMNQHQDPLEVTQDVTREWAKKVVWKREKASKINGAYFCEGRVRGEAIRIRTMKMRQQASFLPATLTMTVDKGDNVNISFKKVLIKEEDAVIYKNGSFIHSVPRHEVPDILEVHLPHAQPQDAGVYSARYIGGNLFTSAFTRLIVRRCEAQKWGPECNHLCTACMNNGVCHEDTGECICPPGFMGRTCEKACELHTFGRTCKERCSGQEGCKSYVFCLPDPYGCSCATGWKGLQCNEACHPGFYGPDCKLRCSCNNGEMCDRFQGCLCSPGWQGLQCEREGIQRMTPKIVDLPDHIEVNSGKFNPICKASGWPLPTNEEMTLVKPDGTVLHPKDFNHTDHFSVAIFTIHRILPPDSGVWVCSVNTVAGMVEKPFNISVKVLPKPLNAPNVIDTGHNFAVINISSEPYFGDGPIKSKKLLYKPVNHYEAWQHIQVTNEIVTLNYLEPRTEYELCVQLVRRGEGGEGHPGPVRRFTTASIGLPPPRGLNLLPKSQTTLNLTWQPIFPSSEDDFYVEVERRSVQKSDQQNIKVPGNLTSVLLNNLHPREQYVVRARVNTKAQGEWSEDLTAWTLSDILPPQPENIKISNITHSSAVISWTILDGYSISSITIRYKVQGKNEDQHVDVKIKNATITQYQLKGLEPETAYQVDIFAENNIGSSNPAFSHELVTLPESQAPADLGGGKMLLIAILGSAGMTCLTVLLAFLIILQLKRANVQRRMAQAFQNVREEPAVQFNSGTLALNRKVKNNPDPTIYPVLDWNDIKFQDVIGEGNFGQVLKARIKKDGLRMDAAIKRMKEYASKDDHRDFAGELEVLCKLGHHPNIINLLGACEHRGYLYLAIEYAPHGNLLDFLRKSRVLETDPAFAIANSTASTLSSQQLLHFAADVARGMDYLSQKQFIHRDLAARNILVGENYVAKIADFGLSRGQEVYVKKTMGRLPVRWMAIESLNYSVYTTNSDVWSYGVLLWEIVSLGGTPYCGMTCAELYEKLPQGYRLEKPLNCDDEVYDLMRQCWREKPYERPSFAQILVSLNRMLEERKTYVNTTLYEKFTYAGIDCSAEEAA

[5] = molecular target: panel of more than 300 wild-type and mutant kinases (313 kinase panel) (Homo sapiens, UniProt Q9Y2H1)
panel of more than 300 wild-type and mutant kinases (313 kinase panel) (Homo sapiens, UniProt Q9Y2H1), sequence (Q9Y2H1 whole entry, change not shown): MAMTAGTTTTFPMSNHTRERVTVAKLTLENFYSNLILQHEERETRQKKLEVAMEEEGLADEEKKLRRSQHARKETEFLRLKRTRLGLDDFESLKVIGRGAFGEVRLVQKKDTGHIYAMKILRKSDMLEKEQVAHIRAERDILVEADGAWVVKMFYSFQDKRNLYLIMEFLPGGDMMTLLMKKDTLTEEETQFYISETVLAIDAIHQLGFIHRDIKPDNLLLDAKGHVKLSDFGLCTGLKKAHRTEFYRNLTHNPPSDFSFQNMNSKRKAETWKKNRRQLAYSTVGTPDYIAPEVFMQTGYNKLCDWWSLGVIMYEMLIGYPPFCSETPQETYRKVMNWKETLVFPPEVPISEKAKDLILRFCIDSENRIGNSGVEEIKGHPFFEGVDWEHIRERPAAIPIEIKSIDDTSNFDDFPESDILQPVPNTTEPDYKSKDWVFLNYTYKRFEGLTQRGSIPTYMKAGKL

[6] = kinase MAP4K2, compound at 1 μM

Row | Structure (SMILES) | %-inhibition of PGK ([1]; kinase PGK, 1 μM) [%] | %-inhibition of MAP4K2 [2, 6] [%] | %-inhibition of MARK2 ([3]; 1 µM) [%] | %-inhibition of TIE2 ([4]; kinase TIE2, 1 μM) [%] | %-inhibition of MARK2 ([3]; kinase MARK2, compound at 1 μM) [%] | %-inhibition of NDR2 ([5]; kinase NDR2, 1 μM) [%] | %-inhibition of PGK ([1]; 1 µM) [%] | %-inhibition of MAP4K2 ([2]; 1 µM) [%] | %-inhibition of TIE2 ([4]; 1 µM) [%] | %-inhibition of NDR2 ([5]; 1 µM) [%]
1 | COc1cc(Nc2c(C#N)cnc3cc(OCCCN4CCN(C)CC4)c(OC)cc23)c(Cl)cc1Cl [bosutinib] | -3.22 | 98 | 58 | 22 | – | – | – | – | – | –
2 | COc1cc2nccc(Oc3ccc(NC(=O)C4(C(=O)Nc5ccc(F)cc5)CC4)cc3)c2cc1OC [cabozantinib] | -3 | 35 | – | 90 | -4 | -6 | – | – | – | –
3 | C[C@@H](Oc1cc(-c2cnn(C3CCNCC3)c2)cnc1N)c1c(Cl)ccc(F)c1Cl [crizotinib] | -2.6 | – | – | – | 26 | -4.76 | – | – | – | –
4 | CC(C)(C)c1nc(-c2cccc(NS(=O)(=O)c3c(F)cccc3F)c2F)c(-c2ccnc(N)n2)s1 [dabrafenib] | – | 8 | – | 81 | 2.85 | -2 | – | – | – | –
5 | Cc1nc(Nc2ncc(C(=O)Nc3c(C)cccc3Cl)s2)cc(N2CCN(CCO)CC2)n1 [dasatinib] | – | – | – | – | – | -6 | – | – | – | –
6 | C#Cc1cccc(Nc2ncnc3cc(OCCOC)c(OCCOC)cc23)c1 [erlotinib] | – | – | 7 | – | – | – | 1.68 | 9 | 9 | -6
7 | CO[C@H]1C[C@@H]2CC[C@@H](C)[C@@](O)(O2)C(=O)C(=O)N2CCCC[C@H]2C(=O)O[C@H]([C@H](C)C[C@@H]2CC[C@@H](OCCO)[C@H](OC)C2)CC(=O)[C@H](C)/C=C(\C)[C@@H](O)[C@@H](OC)C(=O)[C@H](C)C[C@H](C)/C=C/C=C/C=C/1C [everolimus] | -6.44 | -7 | – | -3.66 | -6 | -8 | – | – | – | –
8 | O=S(=O)(c1cccc2cnccc12)N1CCCNCC1 [fasudil] | 44 | 4 | – | -10 | 3.21 | 25 | – | – | – | –
9 | CS(=O)(=O)CCNCc1ccc(-c2ccc3ncnc(Nc4ccc(OCc5cccc(F)c5)c(Cl)c4)c3c2)o1 [lapatinib] | – | 11 | – | 2.14 | 10 | -6 | -1 | – | – | –
10 | Cc1cn(-c2cc(NC(=O)c3ccc(C)c(Nc4nccc(-c5cccnc5)n4)c3)cc(C(F)(F)F)c2)cn1 [nilotinib] | – | 3.24 | – | 41 | 0.732 | -14 | -13 | – | – | –
11 | Cc1ccc(Nc2nccc(N(C)c3ccc4c(C)n(C)nc4c3)n2)cc1S(N)(=O)=O [pazopanib] | -3 | 71 | – | 26 | 8 | 2.36 | – | – | – | –
12 | Cc1ccc(C(=O)Nc2ccc(CN3CCN(C)CC3)c(C(F)(F)F)c2)cc1C#Cc1cnc2cccnn12 [ponatinib] | -0.866 | 99 | – | 101 | – | – | – | – | – | –
13 | CNC(=O)c1cc(Oc2ccc(NC(=O)Nc3ccc(Cl)c(C(F)(F)F)c3)c(F)c2)ccn1 [regorafenib] | -7 | 46 | – | 47 | 2.17 | -8.54 | – | – | – | –
14 | N#CC[C@H](C1CCCC1)n1cc(-c2ncnc3[nH]ccc23)cn1 [ruxolitinib] | 14 | 7 | – | 3 | – | 89 | – | – | – | –
15 | CCN(CC)CCNC(=O)c1c(C)[nH]c(/C=C2\C(=O)Nc3ccc(F)cc32)c1C [sunitinib] | – | 85 | – | – | – | – | – | – | – | –
16 | CO[C@H]1C[C@@H]2CC[C@@H](C)[C@@](O)(O2)C(=O)C(=O)N2CCCC[C@H]2C(=O)O[C@H]([C@H](C)C[C@@H]2CC[C@@H](OC(=O)C(C)(CO)CO)[C@H](OC)C2)CC(=O)[C@H](C)/C=C(\C)[C@@H](O)[C@@H](OC)C(=O)[C@H](C)C[C@H](C)/C=C/C=C/C=C/1C [temsirolimus] | -5.57 | -3 | – | -8 | -6 | -3.63 | – | – | – | –
17 | CC(=O)Nc1cccc(-n2c(=O)n(C3CC3)c(=O)c3c(Nc4ccc(I)cc4F)n(C)c(=O)c(C)c32)c1 [trametinib] | -1.31 | 4 | – | -7 | -6 | -1.48 | – | – | – | –
18 | COc1cc2c(Nc3ccc(Br)cc3F)ncnc2cc1OCC1CCN(C)CC1 [vandetanib] | -3.59 | – | – | 85 | -9 | -9 | – | – | – | –
19 | CCCS(=O)(=O)Nc1ccc(F)c(C(=O)c2c[nH]c3ncc(-c4ccc(Cl)cc4)cc23)c1F [vemurafenib] | -4.33 | 43 | – | -2.42 | -0.167 | -2.51 | – | – | – | –
